# Data: publication PMC5007978, “A chemical with proven clinical safety rescues Down-syndrome-related phenotypes in through DYRK1A inhibition” (Disease Models & Mechanisms, 2016)
# Legend:
# [1] = biological target: DYRK1A (Homo sapiens, UniProt Q13627); test: DYRK1A-mediated Tau (T212) phosphorylation in transfected 293T cells, western blot; format: cell-based; design: expressed in transfected cells; host or cells: 293T cells
# [2] = system: calcineurin-NFAT signaling; test: Flag-NFATc1 localization by immunofluorescence in 293T cells; format: cell-based; conditions: 10 μM, 293T cells with overexpressed DYRK1A, ionomycin 5 μM
# From the text: Flag-NFATc1 remained predominantly in the cytosol when expressed in 293T cells (Mock, Fig. 5A). Upon the addition of the calcium ionophore ionomycin (IM), Flag-NFATc1 was translocated into the nucleus (Fig. 5A, IM) as a result of NFATc1 dephosphorylation by activated calcineurin. Overexpression of DYRK1A relocalized Flag-NFATc1 into the cytoplasm, even in the presence of ionomycin owing to the opposing action of DYRK1A on NFATc1 phosphorylation, which is consistent with its negative regulatory role in the calcineurin-NFAT pathway (Fig. 5A, DYRK1A+IM).
# (§1) Fig. 5. […] Firefly luciferase activities were measured using One-Glo reagents. Luciferase activity in the sample with reporter plasmid alone was set to 1, and the relative luciferase activities were calculated. Means±s.d. were determined from two independent experiments.
# 293T cells were seeded into 8-well chambered coverslips (Ibidi) and transfected with a plasmid expressing Flag-NFATc1. […] Cells were fixed with 4% paraformaldehyde in PBS for 10 min at room temperature, followed by permeabilization with 0.1% Triton X-100, and then subjected to immunofluorescence staining with anti-Flag (1:500) antibody for 2 h. Cells were then washed with cold PBS three times for 3 min each, incubated with Alexa-Fluor-488-conjugated anti-rabbit IgG (1:800) (Invitrogen) at room temperature for 1 h and then examined under a fluorescence microscope.
# [3] = system: calcineurin-NFAT signaling; test: NFAT-RE promoter luciferase reporter assay (NRE-Luc) in 293T cells; format: cell-based; conditions: IM and PMA (10 nM), 1, 3 and 10 μM
# Experimental: as §1
# Treatment with IM and phorbol 12-myristate 13-acetate (PMA) induced a dramatic increase in luciferase activity (∼20 fold) as a result of the nuclear translocation of NFATc1 and the subsequent transcriptional activation (Fig. 5B). In this situation, the overexpression of DYRK1A suppressed the stimulatory effect of IM and PMA by 75%, resulting in a 4.5-fold increase in luciferase activity compared with that of the control (Fig. 5B).
# The firefly luciferase reporter assay was performed using a One-Glo Assay System (Promega) according to the manufacturer's instructions. The transcriptional activity of NFATc1 in 293T cells was measured with a reporter vector (pGL4.30 luc2P/NFAT-RE/Hygro) (Promega) that expresses the firefly luciferase gene under the control of an NFAT-RE promoter. 293T cells were transfected with the DYRK1A-expressing plasmid and reporter plasmid. On the next day, cells were treated with IM (2.5 μM) and phorbol-12-myristate-13-acetate (10 nM) along with the indicated amounts of inhibitors. Cells were further incubated for 8 h and then cell lysates were harvested to measure luciferase activity.
# [4] = biological target: T1, DYRK4 (Homo sapiens, UniProt Q9NR20); test: In vitro kinase assay, recombinant human DYRK4 (Life Technologies); format: biochemical
# T1 construct: purchased Life Technologies (Kinase Profiler service)
# T1 sequence (Q9NR20 1-520): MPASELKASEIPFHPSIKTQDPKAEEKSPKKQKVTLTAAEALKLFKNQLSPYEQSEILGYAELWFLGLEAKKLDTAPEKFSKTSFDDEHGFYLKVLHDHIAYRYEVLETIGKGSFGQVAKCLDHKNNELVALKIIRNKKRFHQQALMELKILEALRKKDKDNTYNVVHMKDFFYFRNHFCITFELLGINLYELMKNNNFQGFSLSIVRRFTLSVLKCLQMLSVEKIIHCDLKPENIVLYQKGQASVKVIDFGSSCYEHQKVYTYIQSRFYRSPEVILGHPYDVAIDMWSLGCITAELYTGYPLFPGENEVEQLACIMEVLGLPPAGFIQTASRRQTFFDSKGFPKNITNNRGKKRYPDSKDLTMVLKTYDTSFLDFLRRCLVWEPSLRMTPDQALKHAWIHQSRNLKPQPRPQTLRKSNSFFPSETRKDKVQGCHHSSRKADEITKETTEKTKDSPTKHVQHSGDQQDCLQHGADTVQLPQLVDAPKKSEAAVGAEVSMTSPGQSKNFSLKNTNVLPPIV
# [5] = system: mnb-overexpressing Drosophila; test: Adult lethality with pan-neuronal mnb overexpression; format: in vivo, Drosophila melanogaster; conditions: parent flies fed 100 nM, n=100 per group
# From the text: (§2) The expression of human Tau in Drosophila retinal tissue (GMR>Tau) produced a small rough eye phenotype (GMR>Tau in Fig. 6A and B), as described previously ([Jackson et al., 2002]). […] Pan-neuronal mnb overexpression (elav::synGFP>mnb) caused severe neurogenic defects in both the central and peripheral nervous system during embryogenesis [elav::synGFP>mnb (DMSO) in Fig. 6C]. […] Moreover, the viability of adult flies with the neuronal overexpression of mnb was examined. Pan-neuronal overexpression of mnb caused high rates of mortality in adult flies (∼70%, Fig. 6D).
# (§3) Fig. 6. CX-4945 rescues neurological and phenotypic defects in an mnb-overexpressing Drosophila model. (A) The eyes of adult flies overexpressing mnb and/or human Tau under the control of the eye-specific GMR-Gal4 driver, and of control flies bearing only GMR-Gal4. Overexpression of mnb aggravated the eye abnormality induced by Tau overexpression. […] White dashed lines outline the eye contour. (B) The retinal surface areas were measured on multiple samples (n>10) from each genotype, and average eye sizes were presented as normalized percentages of the DMSO-treated GMR-Gal4 control. (C) The brain cortex, primary neuronal cell clusters and axon bundle, as visualized with GFP (green) using UAS-Synaptobrevin-GFP driven by elav-Gal4 at the late embryonic stage 18. […]
# [6] = design: method as in Senhwa Biosciences (2014); conditions: phase I clinical trials as cancer therapeutic; ref Senhwa Biosciences (2014); cited from earlier work
# [7] = system: mnb-overexpressing Drosophila; test: Embryonic neurological phenotype with pan-neuronal mnb overexpression (elav::synGFP); format: in vivo
# From the text: as §2, §3
smiles,measurement,setting,value
O=C(O)c1ccc2c(c1)nc(Nc1cccc(Cl)c1)c1ccncc12 [CX-4945],inhibition of Tau phosphorylation at 0.1 μM,[1]; 0.1 μM,Moderate inhibition
same,inhibition of Tau phosphorylation at 1 μM,[1]; 1 μM,almost complete inhibition
same,nuclear translocation of Flag-NFATc1,[2],effectively induced the nuclear translocation
same,NFATc1-dependent transcriptional activation (NRE-Luc) suppressed by DYRK1A overexpression,[3],reversed the effect of DYRK1A overexpression in a dose-dependent manner
same,IC50,[4],1.5 µM
same,reduction of mortality of the progeny,[5],more than 70%
same,clinical safety,[6],safety has been already proven
same,effect on control flies lacking mnb overexpression,"[7]; 100 nM, elav::synGFP>control",little noticeable effect
same,neurogenic defects of mnb-overexpressing embryos,"[7]; parent flies fed 100 nM, elav::synGFP>mnb",restored these neurogenic defects
